In patent publication US8163771B2, “11 β-HSD1 modulators” (Exelixis, Inc., priority 2008, dated 2012) one finds IC50 data, which are given here for 27 molecules.

Molecules are shown by their SMILES. Where only a bound is given, the exact number is not on record here.

T1 sequence (P28845 whole entry): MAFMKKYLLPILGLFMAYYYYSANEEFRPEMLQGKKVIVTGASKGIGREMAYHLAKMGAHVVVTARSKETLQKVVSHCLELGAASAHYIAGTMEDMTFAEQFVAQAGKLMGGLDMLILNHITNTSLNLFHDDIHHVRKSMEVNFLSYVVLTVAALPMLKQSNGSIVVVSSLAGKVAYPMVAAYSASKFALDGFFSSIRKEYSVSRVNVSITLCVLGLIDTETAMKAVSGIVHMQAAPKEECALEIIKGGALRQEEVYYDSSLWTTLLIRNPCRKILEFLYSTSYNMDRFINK

The experiment has as its target T1, recombinant human 11 β-HSD1 (Homo sapiens, UniProt P28845).
T1 construct: made in house; host or cells: E. coli
The experiment can be described thus: 11 β-HSD1 SPA Assay (Scintillation Proximity Assay). The class given is biochemical. The method, boiled down:
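E. coli-expressed human enzyme (30-100 nM) with tritiated cortisone 40 nM and NADPH 1 mM in HEPES buffer pH7.4, 2 hours at room temperature. Stopped with protein A SPA beads carrying anti-cortisol antibody and glycyrrhetinic acid; counted after overnight incubation. IC50 from percent inhibition between no-enzyme and no-compound signals.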
Take `CC(C)(Oc1ccc(F)cc1C(F)(F)F)C(=O)N[C@H]1C[C@H]2CC[C@@H](C1)N2c1ccc(C(N)=O)cn1` [Example 168, 6-{3-endo-[(2-{[4-fluoro-2-(trifluoromethyl)phenyl]oxy}-2-methylpropanoyl)amino]-8-azabicyclo[3.2.1]oct-8-yl}pyridine-3-carboxamide]: the half-inhibitory concentration (IC50) is less than 200 nM.
For `CC(C)(Oc1ccc(Cl)cc1C(F)(F)F)C(=O)N[C@H]1C[C@H]2CC[C@@H](C1)N2c1ccc(C(N)=O)cn1` [Example 169, 6-{3-endo-[(2-{[4-chloro-2-(trifluoromethyl)phenyl]oxy}-2-methylpropanoyl)amino]-8-azabicyclo[3.2.1]oct-8-yl}pyridine-3-carboxamide], the 50% inhibitory concentration (IC50) was less than 200 nM.
For the molecule `CC(C)(Oc1ccc(Cl)cc1Cl)C(=O)N[C@H]1C[C@H]2CC[C@@H](C1)N2c1ccc(C(=O)NCC(F)(F)F)nc1` [Example 170, 5-[3-endo-({2-[(2,4-dichlorophenyl)oxy]-2-methylpropanoyl}amino)-8-azabicyclo[3.2.1]oct-8-yl]-N-(2,2,2-trifluoroethyl)pyridine-2-carboxamide], the IC50 is less than 200 nM.
Regarding `CC(C)(Oc1ccc(Cl)cc1Cl)C(=O)N[C@H]1C[C@H]2CC[C@@H](C1)N2c1cc(C(=O)NCC(F)(F)F)ccn1` [Example 171, 2-[3-endo-({2-[(2,4-dichlorophenyl)oxy]-2-methylpropanoyl}amino)-8-azabicyclo[3.2.1]oct-8-yl]-N-(2,2,2-trifluoroethyl)pyridine-4-carboxamide], the IC50 was less than 2000 nM.
`CC(C)(Oc1ccc(C(F)(F)F)cc1)C(=O)N[C@H]1C[C@H]2CC[C@@H](C1)N2c1ccc(C(N)=O)cn1` [Example 172, 6-{3-endo-[(2-methyl-2-{[4-(trifluoromethyl)phenyl]oxy}propanoyl)amino]-8-azabicyclo[3.2.1]oct-8-yl}pyridine-3-carboxamide]: the half-maximal inhibitory concentration (IC50) is less than 200 nM.
For `CC(C)(Oc1ccc(F)cc1Cl)C(=O)N[C@H]1C[C@H]2CC[C@@H](C1)N2c1ccc(S(C)(=O)=O)cc1` [Example 173, 2-[(2-chloro-4-fluorophenyl)oxy]-2-methyl-N-{8-[4-(methylsulfonyl)phenyl]-8-azabicyclo[3.2.1]oct-3-endo-yl}propanamide], the concentration for half-maximal inhibition (IC50) was less than 200 nM.
In the case of `CC(C)(Oc1cc(Cl)c(F)cc1Cl)C(=O)N[C@H]1C[C@H]2CC[C@@H](C1)N2c1ccc(S(C)(=O)=O)cc1` [Example 174, 2-[(2,5-dichloro-4-fluorophenyl)oxy]-2-methyl-N-{8-[4-(methylsulfonyl)phenyl]-8-azabicyclo[3.2.1]oct-3-endo-yl}propanamide] it was less than 2000 nM.
As to `CC(C)(Oc1ncc(Cl)cc1Cl)C(=O)N[C@H]1C[C@H]2CC[C@@H](C1)N2c1ccc(S(C)(=O)=O)cc1` [Example 175, 2-[(3,5-dichloropyridin-2-yl)oxy]-2-methyl-N-{8-[4-(methylsulfonyl)phenyl]-8-azabicyclo[3.2.1]oct-3-endo-yl}propanamide], the IC50 was less than 200 nM.
On to `CC(C)(Oc1ccc(F)cc1C(F)(F)F)C(=O)N[C@H]1C[C@H]2CC[C@@H](C1)N2c1ccc(S(C)(=O)=O)cn1` [Example 176, 2-{[4-fluoro-2-(trifluoromethyl)phenyl]oxy}-2-methyl-N-{8-[5-(methylsulfonyl)pyridin-2-yl]-8-azabicyclo[3.2.1]oct-3-endo-yl}propanamide], for which the IC50 was less than 200 nM.
`CC(C)(Oc1ccc(F)cc1C(F)(F)F)C(=O)N[C@H]1C[C@H]2CC[C@@H](C1)N2c1ccc(S(N)(=O)=O)cn1` [Example 177, N-{8-[5-(aminosulfonyl)pyridin-2-yl]-8-azabicyclo[3.2.1]oct-3-endo-yl}-2-{[4-fluoro-2-(trifluoromethyl)phenyl]oxy}-2-methylpropanamide]: the half-inhibitory concentration (IC50) was less than 200 nM.
As to `CC(C)(Oc1c(Cl)cc(F)cc1Cl)C(=O)N[C@H]1C[C@H]2CC[C@@H](C1)N2c1ccc(S(C)(=O)=O)cn1` [Example 178, 2-[(2,6-dichloro-4-fluorophenyl)oxy]-2-methyl-N-{8-[5-(methylsulfonyl)pyridin-2-yl]-8-azabicyclo[3.2.1]oct-3-endo-yl}propanamide], the IC50 is less than 200 nM.
Consider `CC(C)(Oc1c(Cl)cc(F)cc1C(F)(F)F)C(=O)N[C@H]1C[C@H]2CC[C@@H](C1)N2c1ccc(S(C)(=O)=O)cn1` [Example 179, 2-{[2-chloro-4-fluoro-6-(trifluoromethyl)phenyl]oxy}-2-methyl-N-{8-{5-(methylsulfonyl)pyridin-2-yl]-8-azabicyclo[3.2.1]oct-3-endo-yl}propanamide], for which the IC50 is less than 200 nM.
As to `COc1ccc(OC(C)(C)C(=O)N[C@H]2C[C@H]3CC[C@@H](C2)N3c2ccc(S(C)(=O)=O)cn2)cc1` [Example 180, 2-methyl-2-{[4-(methyloxy)phenyl]oxy}-N-{8-[5-(methylsulfonyl)pyridin-2-yl]-8-azabicyclo[3.2.1]oct-3-endo-yl}propanamide], the IC50 is less than 200 nM.
As for `COc1ccc(OC(C)(C)C(=O)N[C@H]2C[C@H]3CC[C@@H](C2)N3c2ccc(S(N)(=O)=O)cn2)cc1` [Example 181, N-{8-[5-(aminosulfonyl)pyridin-2-yl]-8-azabicyclo[3.2.1]oct-3-endo-yl}-2-methyl-2-{[4-(methyloxy)phenyl]oxy}propanamide], the IC50 was less than 200 nM.
On to `COc1ccc(OC(C)(C)C(=O)N[C@H]2C[C@H]3CC[C@@H](C2)N3c2ccc(S(C)(=O)=O)cc2)cc1` [Example 182, 2-methyl-2-{[4-(methyloxy)phenyl]oxy}-N-{8-[4-(methylsulfonyl)phenyl]-8-azabicyclo[3.2.1]oct-3-endo-yl}propanamide], for which the IC50 was less than 2000 nM.
To `CC(C)(Oc1ccc(C(F)(F)F)cc1Cl)C(=O)N[C@H]1C[C@H]2CC[C@@H](C1)N2c1ccc(C(N)=O)cn1` [Example 183, 6-{3-endo-[(2-{[2-chloro-4-(trifluoromethyl)phenyl]oxy}-2-methylpropanoyl)amino]-8-azabicyclo[3.2.1]oct-8-yl}pyridine-3-carboxamide] belongs less than 200 nM.
Consider `CC(C)(Oc1ccc(C(F)(F)F)cc1Cl)C(=O)N[C@H]1C[C@H]2CC[C@@H](C1)N2c1ccc(C(=O)NCC(F)(F)F)cn1` [Example 184, 6-{3-endo-[(2-{[2-chloro-4-(trifluoromethyl)phenyl]oxy}-2-methylpropanoyl)amino]-8-azabicyclo[3.2.1]oct-8-yl}-N-(2,2,2-trifluoroethyl)pyridine-3-carboxamide], for which the IC50 was less than 200 nM.
Take `CC(C)(Oc1ccc(Cl)c(C(F)(F)F)c1)C(=O)N[C@H]1C[C@H]2CC[C@@H](C1)N2c1ccc(C(N)=O)cn1` [Example 185]: the half-maximal inhibitory concentration (IC50) is less than 200 nM.
Consider `CC(C)(Oc1ccc(Cl)c(C(F)(F)F)c1)C(=O)N[C@H]1C[C@H]2CC[C@@H](C1)N2c1ccc(C(=O)NCC(F)(F)F)cn1` [Example 186, 6-{3-endo-[(2-{[4-chloro-3-(trifluoromethyl)phenyl]oxy}-2-methylpropanoyl)amino]-8-azabicyclo[3.2.1]oct-8-yl}-N-(2,2,2-trifluoroethyl)pyridine-3-carboxamide], for which the half-maximal inhibitory concentration (IC50) is less than 200 nM.
As for `CC(C)(Oc1ccc(F)c(C(F)(F)F)c1)C(=O)N[C@H]1C[C@H]2CC[C@@H](C1)N2c1ccc(C(N)=O)cn1` [Example 187, 6-{3-endo-[(2-{[4-fluoro-3-(trifluoromethyl)phenyl]oxy}-2-methylpropanoyl)amino]-8-azabicyclo[3.2.1]oct-8-yl}pyridine-3-carboxamide], the half-inhibitory concentration (IC50) was less than 200 nM.
Consider `CC(C)(Oc1ccc(F)c(C(F)(F)F)c1)C(=O)N[C@H]1C[C@H]2CC[C@@H](C1)N2c1ccc(C(=O)NCC(F)(F)F)cn1` [Example 188, 6-{3-endo-[(2-{[4-fluoro-3-(trifluoromethyl)phenyl]oxy}-2-methylpropanoyl)amino]-8-azabicyclo[3.2.1]oct-8-yl}-N-(2,2,2-trifluoroethyl)pyridine-3-carboxamide], for which the IC50 is less than 200 nM.
In the case of `CC(C)(Oc1cc(C(F)(F)F)ccc1F)C(=O)N[C@H]1C[C@H]2CC[C@@H](C1)N2c1ccc(C(N)=O)cn1` [Example 189, 6-{3-endo-[(2-{[2-fIuoro-5-(trifluoromethyl)phenyl]oxy}-2-methylpropanoyl)amino]-8-azabicyclo[3.2.1]oct-8-yl}pyridine-3-carboxamide] it was less than 200 nM; in that of `CC(C)(Oc1cc(C(F)(F)F)ccc1F)C(=O)N[C@H]1C[C@H]2CC[C@@H](C1)N2c1ccc(C(=O)NCC(F)(F)F)cn1` [Example 190, 6-{3-endo-[(2-{[2-fluoro-5-(trifluoromethyl)phenyl]oxy}-2-methylpropanoyl)amino]-8-azabicyclo[3.2.1]oct-8-yl}-N-(2,2,2-trifiuoroethyl)pyridine-3-carboxamide], less than 200 nM; in that of `CC(C)(Oc1ncc(Cl)cc1Cl)C(=O)N[C@H]1C[C@H]2CC[C@@H](C1)N2c1ccc(S(N)(=O)=O)cn1` [Example 191, N-{8-[5-(aminosulfonyl)pyridin-2-yl]-8-azabicyclo[3.2.1]oct-3-endo-yl}-2-[(3,5-dichloropyridin-2-yl)oxy]-2-methylpropanamide], less than 200 nM.
Take `CC(C)(Oc1ccc(C(F)(F)F)cn1)C(=O)N[C@H]1C[C@H]2CC[C@@H](C1)N2c1ccc(S(N)(=O)=O)cc1` [Example 192, N-{8-[4-(aminosulfonyl)phenyl]-8-azabicyclo[3.2.1]oct-3-endo-yl}-2-methyl-2-{[5-(trifluoromethyl)pyridin-2-yl]oxy}propanamide]: the IC50 is less than 2000 nM.
With `CC(C)(Oc1ncc(Cl)cc1Cl)C(=O)N[C@H]1C[C@H]2CC[C@@H](C1)N2c1ccc(S(C)(=O)=O)cn1` [Example 193, 2-[(3,5-dichloropyridin-2-yl)oxy]-2-methyl-N-{8-[5-(methylsulfonyl)pyridin-2-yl]-8-azabicyclo[3.2.1]oct-3-endo-yl}propanamide], the IC50 was less than 200 nM.
On to `CC(C)(Oc1ncc(Cl)cc1F)C(=O)N[C@H]1C[C@H]2CC[C@@H](C1)N2c1ccc(S(C)(=O)=O)cn1` [Example 194, 2-[(5-chloro-3-fluoropyridin-2-yl)oxy]-2-methyl-N-{8-[5-(methylsulfonyl)pyridin-2-yl]-8-azabicyclo[3.2.1]oct-3-endo-yl}propanamide], for which the concentration for half-maximal inhibition (IC50) was less than 2000 nM.
